The results in this text go back to PubChem BioAssay AID330 (DTP/NCI, 2004).

In this assay the test system is P388 leukemia ip, CD2F1 mice, survival T/C. The assay can be described thus: NCI In Vivo Anticancer Drug Screen. Data for tumor model P388 Leukemia (intraperitoneal) in CD2F1 (CDF1) mice. The settings on record: endpoint: median survival time, higher = longer survival. The essentials:
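Mice carrying the transplanted tumor received test compound or vehicle. Survival was recorded in each group, and the value is the treated-group measurement divided by that of the vehicle-treated control group.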

Setting [1] is: dose: 100.0 mg/kg/injection, schedule: Q04DX003 (ip), vehicle: saline with Tween-80.
Where [2] appears, read: dose: 200.0 mg/kg/injection, schedule: Q04DX003 (ip), vehicle: saline with Tween-80.
[3] abbreviates: dose: 400.0 mg/kg/injection, schedule: Q04DX003 (ip), vehicle: saline with Tween-80.
Setting [4] is: dose: 50.0 mg/kg/injection, schedule: Q01DX005 (ip), vehicle: Klucel (hydroxypropylcellulose) (HPC).
Where [5] appears, read: dose: 100.0 mg/kg/injection, schedule: Q01DX005 (ip), vehicle: Klucel (hydroxypropylcellulose) (HPC).
The mark [6] stands for this setting: dose: 200.0 mg/kg/injection, schedule: Q01DX005 (ip), vehicle: Klucel (hydroxypropylcellulose) (HPC).
Where [7] appears, read: dose: 50.0 mg/kg/injection, schedule: Q01DX009 (ip), vehicle: saline.
Where [8] appears, read: dose: 50.0 mg/kg/injection, schedule: Q01DX009 (ip), vehicle: suspension in saline.
Where [9] appears, read: dose: 100.0 mg/kg/injection, schedule: Q01DX009 (ip), vehicle: suspension in saline.
The mark [10] stands for this setting: dose: 50.0 mg/kg/injection, schedule: Q01DX005 (ip), vehicle: saline with Tween-80.
The mark [11] stands for this setting: dose: 100.0 mg/kg/injection, schedule: Q01DX005 (ip), vehicle: saline with Tween-80.
Setting [12] is: dose: 200.0 mg/kg/injection, schedule: Q01DX005 (ip), vehicle: saline with Tween-80.
Where [13] appears, read: dose: 50.0 mg/kg/injection, schedule: Q01DX009 (ip), vehicle: Klucel (hydroxypropylcellulose) (HPC).
Setting [14] is: dose: 100.0 mg/kg/injection, schedule: Q01DX009 (ip), vehicle: Klucel (hydroxypropylcellulose) (HPC).
Setting [15] is: dose: 200.0 mg/kg/injection, schedule: Q01DX009 (ip), vehicle: Klucel (hydroxypropylcellulose) (HPC).
[16] abbreviates: dose: 6.25 mg/kg/injection, schedule: Q01DX009 (ip), vehicle: saline.

“And” between values parts separate entries of the source, which are not always exact repeats. Equal entries are not always repeated. Toxic doses and inconclusive results are not listed. Peptide text beside a SMILES is read from it. * marks the point of attachment. Cbz = O=C(OCc1ccccc1)*

For the molecule `C/C(=C\C(=O)O)CC(=O)O`, the T/C reads like this: under setting [1], 92 % of control; under setting [2], 97 % of control; under setting [3], 88 % of control.
As to `CC(C)Cn1c(Cl)c(/C=N\Nc2ccc([N+](=O)[O-])cc2)c2ccccc21`, the T/C was 94 % of control (dose: 12.5 mg/kg/injection, schedule: Q01DX001 (ip), vehicle: saline); 88 % of control (dose: 25.0 mg/kg/injection, schedule: Q01DX001 (ip), vehicle: saline); 96 % of control (dose: 50.0 mg/kg/injection, schedule: Q01DX001 (ip), vehicle: saline).
Consider `FC1(F)SC(F)(F)S1`, for which the T/C reads like this: under setting [4], 108 % of control; under setting [5], 108 % of control; under setting [6], 108 % of control.
For the molecule `C=C(C)C1CC=C(/C=N/O)CC1` (stereo not drawn), the T/C was 100 % of control (dose: 100.0 mg/kg/injection, schedule: Q01DX009 (ip), vehicle: saline with Tween-80) and 91 % of control (dose: 400.0 mg/kg/injection, schedule: Q01DX009 (ip), vehicle: saline with Tween-80).
Regarding `C[N+](C)(C)N`, the T/C (dose: 25.0 mg/kg/injection, schedule: Q01DX009 (ip), vehicle: saline) was 102 % of control; the T/C under setting [7] was 100 % of control; the T/C (dose: 100.0 mg/kg/injection, schedule: Q01DX009 (ip), vehicle: saline) is 100 % of control.
With `CCCCC[C@@H]1CC=C[C@@H](NC(=O)OCc2ccccc2)[C@H]1/C=C/C(=O)CCCCC1OCCO1`, the T/C is, setting by setting: (dose: 60.0 mg/kg/injection, schedule: Q01DX005 (ip), vehicle: DMSO) 101 % of control; (dose: 120.0 mg/kg/injection, schedule: Q01DX005 (ip), vehicle: DMSO) 93 % of control; (dose: 240.0 mg/kg/injection, schedule: Q01DX005 (ip), vehicle: DMSO) 98 % of control.
`C=CCSc1nc(-c2ccc(Cl)cc2)c(C#N)c(=O)[nH]1`: the T/C by setting is: (dose: 100.0 mg/kg/injection, schedule: Q01DX001 (ip), vehicle: saline with Tween-80) 100 % of control; (dose: 200.0 mg/kg/injection, schedule: Q01DX001 (ip), vehicle: saline with Tween-80) 97 % of control; (dose: 400.0 mg/kg/injection, schedule: Q01DX001 (ip), vehicle: saline with Tween-80) 92 % of control.
For the molecule `C=C1C(=O)O[C@H]2C=C(C)[C@H]3[C@@H](OC(C)=O)C[C@@](C)(O)[C@@H]3C[C@H]12`, the T/C was 106 % of control (dose: 12.5 mg/kg/injection, schedule: Q01DX009 (ip), vehicle: suspension in saline); 106 % of control (dose: 25.0 mg/kg/injection, schedule: Q01DX009 (ip), vehicle: suspension in saline); 103 % of control under setting [8]; 114 % of control under setting [9].
Consider `COCc1ccc2c(c1)C(O)NC(=O)O2` (stereo not drawn), for which the T/C by setting is: under setting [10], 102 % of control; under setting [11], 107 % of control; under setting [12], 109 % of control; (dose: 400.0 mg/kg/injection, schedule: Q01DX005 (ip), vehicle: saline with Tween-80) 117 % of control.
Take `CCOC(=O)CCC(NC(=O)C(CCC(=O)OCC)NC(=O)OCc1ccccc1)C(=O)O` (stereo not drawn) (tested in a mixture with another compound) (Cbz-Glu(OEt)-Glu(OEt)-OH; configuration not given here): the T/C by setting is: under setting [4], 100 % of control; under setting [5], 100 % of control; under setting [6], 100 % of control.
For `O=C1CS(=O)(=O)C(c2cccc(Cl)c2)N1N1C(=O)CS(=O)(=O)C1c1cccc(Cl)c1` (stereo not drawn), the T/C reads like this: under setting [10], 92 % of control; under setting [11], 100 % of control; under setting [12], 92 % of control.
With `CCCCCCCCCCCCCCCCNC(=S)N=Nc1cc(C(C)C)c(NNC(=S)NCCCCCCCCCCCCCCCC)cc1C`, the T/C reads like this: under setting [4], 92 % of control; under setting [5], 99 % of control; under setting [6], 97 % of control.
Regarding `CCOc1ccc(NC(=O)c2c(N)n(C)c(=O)n(C)c2=O)cc1`, the T/C reads like this: under setting [13], 88 % of control; under setting [14], 93 % of control.
With `C[CH2][Sn]([CH2]C)([O]S(C)(=O)=O)[O]S(C)(=O)=O`, the T/C reads like this: (dose: 1.56 mg/kg/injection, schedule: Q04DX003 (ip), vehicle: saline) 114 % of control; (dose: 6.25 mg/kg/injection, schedule: Q04DX003 (ip), vehicle: saline) 117 % of control and 118 % of control; (dose: 12.5 mg/kg/injection, schedule: Q04DX003 (ip), vehicle: saline) 164 % of control.
In the case of `CC(=O)OC1(c2nccc3ccccc23)CCN(Cc2ccccc2)CC1`, the T/C is, setting by setting: under setting [13], 106 % of control; under setting [14], 106 % of control; under setting [15], 102 % of control.
Consider `Cc1cc2nc3ccc(N)cc3oc-2cc1=[N+](C)C`, for which the T/C was 108 % of control under setting [16] and 100 % of control under setting [7].
For `Cc1noc(NS(=O)(=O)c2ccc(N=c3c4ccccc4n(Cc4ccccc4)c4ccccc34)cc2)c1C`, the T/C by setting is: under setting [10], 96 % of control; under setting [11], 94 % of control; under setting [12], 87 % of control.
Turning to `CN1CC[S][Sn]([CH2][Sn]2([c]3ccccc3)[S]CCN(C)CC[S]2)([c]2ccccc2)[S]CC1`, the T/C runs as follows: under setting [4], 99 % of control; under setting [5], 101 % of control; under setting [6], 100 % of control.
Take `Cc1c(C)c2c(c3c1OC(C)(C)CC3)CCC(C)(C)O2`: the T/C under setting [8] was 88 % of control; the T/C under setting [9] was 101 % of control; the T/C (dose: 200.0 mg/kg/injection, schedule: Q01DX009 (ip), vehicle: suspension in saline) is 100 % of control.
On to `CCO/C=N/c1[nH]c(C)c(C)c1C#N`, for which the T/C was 93 % of control under setting [13], 100 % of control under setting [14] and 105 % of control under setting [15].
Regarding `CCC(c1ccc(O)cc1)C(CC)c1ccc(O)c(CN(C)C)c1` (stereo not drawn), the T/C was 100 % of control (dose: 15.0 mg/kg/injection, schedule: Q01DX005 (ip), vehicle: saline with Tween-80); 100 % of control (dose: 30.0 mg/kg/injection, schedule: Q01DX005 (ip), vehicle: saline with Tween-80); 96 % of control (dose: 60.0 mg/kg/injection, schedule: Q01DX005 (ip), vehicle: saline with Tween-80); 94 % of control (dose: 120.0 mg/kg/injection, schedule: Q01DX005 (ip), vehicle: saline with Tween-80).
Regarding `CC(C)(C(=O)O)C(C)(C)C(=O)O`, the T/C by setting is: (dose: 1.56 mg/kg/injection, schedule: Q01DX001 (ip), vehicle: saline) 102 % of control; (dose: 3.12 mg/kg/injection, schedule: Q01DX001 (ip), vehicle: saline) 101 % of control.
Take `COc1ccc2c(c1OC)C(=O)OC2`: the T/C was 90 % of control under setting [4], 90 % of control under setting [5] and 90 % of control under setting [6].
In the case of `Cc1cc(O)c(C(C)C)cc1S(=O)(=O)O` (tested in a mixture with another compound), the T/C runs as follows: under setting [1], 100 % of control; under setting [2], 95 % of control and 108 % of control; under setting [3], 108 % of control.
For `CCN(CC)c1ccc(C=C2C(=O)NC(=S)NC2=O)cc1`, the T/C reads like this: (dose: 25.0 mg/kg/injection, schedule: Q01DX005 (ip), vehicle: Klucel (hydroxypropylcellulose) (HPC)) 101 % of control; under setting [4], 100 % of control; under setting [5], 101 % of control; under setting [6], 100 % of control.
Consider `CCCCCC(C(=O)OCC)/C(C)=N\NC(N)=S` (stereo not drawn), for which the T/C is 100 % of control (dose: 60.0 mg/kg/injection, schedule: Q01DX005 (ip), vehicle: Klucel (hydroxypropylcellulose) (HPC)); 98 % of control (dose: 120.0 mg/kg/injection, schedule: Q01DX005 (ip), vehicle: Klucel (hydroxypropylcellulose) (HPC)); 100 % of control (dose: 240.0 mg/kg/injection, schedule: Q01DX005 (ip), vehicle: Klucel (hydroxypropylcellulose) (HPC)).
Regarding `O=S(=O)(F)C(Br)(Br)S(=O)(=O)F`, the T/C was 97 % of control under setting [4] and 97 % of control under setting [5].
In the case of `CCCC/C(C)=N/NC(=S)SC`, the T/C is 100 % of control (dose: 3.12 mg/kg/injection, schedule: Q01DX009 (ip), vehicle: saline); 106 % of control under setting [16]; 100 % of control (dose: 12.5 mg/kg/injection, schedule: Q01DX009 (ip), vehicle: saline).
